{
  "source": "patent US4734435A",
  "about": "“N-[[6-methoxy-5-(trifluoromethyl)-1-naphthalenyl]-thioxome thyl]-N-methylglycine S-oxide and the amide thereof” (American Home Products Corp., priority 1986, dated 1988)",
  "key": {"[1]": {"test_system": "galactitol accumulation in the lenses and sciatic nerves", "assay": "In vivo lowering of dulcitol (galactitol) accumulation in galactosemic rats", "set-up": "species or system rat (male, Sprague-Dawley)", "conditions": "for effect on accumulation of galactitol in the lenses and sciatic nerves (in words): rats fed galactose", "excerpt": "The aldose reductase inhibiting property of the compounds of this invention and the utilization of the compounds in preventing, diminishing and alleviating diabetic complications are demonstrable in experiments using galactosemic rats, see Dvornik et al, cited above. Such experiments are exemplified hereinbelow after the listing of the following general comments pertaining to these experiments:\n(a) Four or more groups of six male rats, 50-70 g, Sprague-Dawley strain, were used. The first group, the control group, was fed a mixture of laboratory chow (rodent Laboratory Chow, Purina) and glucose at 20% (w/w %) concentration. The untreated galactosemic group and the drug-treated groups were fed a similar diet in which galactose is substituted for glucose. The test compound was either admixed to the diet or administered by gavage. In experiments involving compound administration in the diet, the average dose administered was calculated from the actual food intake of the animals in each group. The concentration of galactose in the diet of the treated groups was the same as that for the untreated galactosemic group.\n(b) After four days, the animals were killed by decapitation. The eyeballs were removed and punctured with a razor blade; the freed lenses were rolled gently on filter paper and weighed. The sciatic nerves were dissected as completely as possible and weighed. Both tissues when frozen can be kept up to two weeks before being analyzed for galactitol.\n(c) The polyol determination was performed by a modification of the procedure of M. Kraml and L. Cosyns, Clin. Biochem., 2, 373 (1969). Only two minor reagent changes were made: (a) The rinsing mixture was an aqueous 5% (w/v) trichloroacetic acid solution and (b) the stock solution was prepared by dissolving 25 mg of dulcitol in 100 mL of an aqueous trichloroacetic acid solution. [N.B.: For each experiment the average value found in the tissue from rats fed the glucose diet was subtracted from the individual values found in the corresponding tissue in galactose-fed rats to obtain the amount of polyol accumulated.] The aldose reductase inhibiting effects of the compounds of formula (I) were also tested by employing an in vitro testing procedure similar to that described by S. Hayman and J. H. Kinoshita, J. Biol. Chem., 240, 877 (1965). In the present case the procedure of Hayman and Kinoshita was modified in that the final chromatography step was omitted in the preparation of the enzyme from bovine lens.\nThe figures under L and N represent the percentage decrease of galactitol accumulation in the tissues of the lens and sciatic nerve, respectively, for treated rats as compared to untreated rats."}, "[2]": {"assay": "Metabolites of tolrestat found in humans and other mammals", "assay_type": "in vivo"}, "[3]": {"target": "T1, aldose reductase (Bos taurus, UniProt P16116)", "T1 construct": "preparation of the enzyme from bovine lens; from tissue; host or cells: bovine lens", "assay": "In vitro inhibition of aldose reductase from bovine lens (modified Hayman and Kinoshita procedure)", "assay_type": "biochemical", "conditions": "10^-7 M; enzyme from bovine lens", "protocol": "Only two minor reagent changes were made: (a) The rinsing mixture was an aqueous 5% (w/v) trichloroacetic acid solution and (b) the stock solution was prepared by dissolving 25 mg of dulcitol in 100 mL of an aqueous trichloroacetic acid solution. [N.B.: For each experiment the average value found in the tissue from rats fed the glucose diet was subtracted from the individual values found in the corresponding tissue in galactose-fed rats to obtain the amount of polyol accumulated.] […] In the present case the procedure of Hayman and Kinoshita was modified in that the final chromatography step was omitted in the preparation of the enzyme from bovine lens."}, "[4]": {"conditions": "lens, 50 mg/kg/day, gavage (same experiment), four days"}, "[5]": {"conditions": "sciatic nerve, 50 mg/kg/day, gavage (same experiment), four days"}},
  "data": [
    {"smiles": "COc1ccc2c(C(=O)N(C)CC(=O)O)cccc2c1C(F)(F)F", "note": "[N--[[6-methoxy-5-(trifluoromethyl)-1-naphthalenyl]carbonyl]-N--methylglycine, reference compound]", "values": [
      {"measurement": "% lowering dulcitol accumulation in vivo, L (lens)", "setting": "[1]; [4]", "result": 0, "unit": "%"},
      {"measurement": "% lowering dulcitol accumulation in vivo, N (sciatic nerve)", "setting": "[1]; [5]", "result": 59, "unit": "%"}
    ]},
    {"smiles": "COc1ccc2c(C(=S=O)N(C)CC(=O)O)cccc2c1C(F)(F)F", "note": "[N-[[6-Methoxy-5-(trifluoromethyl)-1-naphthalenyl]thioxomethyl]-N-methylglycine S-oxide]", "values": [
      {"measurement": "occurrence as metabolite of tolrestat (in words)", "setting": "[2]", "result": "one of the metabolites of tolrestat found in humans and other mammals"},
      {"measurement": "comparison with tolrestat at 10 mg/kg/day (in words)", "setting": "[1]; at a dose of 50 mg/kg/day", "result": "comparable results"},
      {"measurement": "% lowering dulcitol accumulation in vivo, L (lens)", "setting": "[1]; lens, 20 mg/kg/day, diet, four days", "result": 0, "unit": "%"},
      {"measurement": "% lowering dulcitol accumulation in vivo, L (lens)", "setting": "[1]; [4]", "result": 0, "unit": "%"},
      {"measurement": "% lowering dulcitol accumulation in vivo, L (lens)", "setting": "[1]; lens, 115 mg/kg/day, diet, four days", "result": 20, "unit": "%"},
      {"measurement": "effect on accumulation of galactitol in the lenses and sciatic nerves (in words)", "setting": "[1]", "result": "diminish the accumulation of galactitol in the lenses and sciatic nerves of rats fed galactose"},
      {"measurement": "% lowering dulcitol accumulation in vivo, N (sciatic nerve)", "setting": "[1]; sciatic nerve, 20 mg/kg/day, diet, four days", "result": 45, "unit": "%"},
      {"measurement": "% lowering dulcitol accumulation in vivo, N (sciatic nerve)", "setting": "[1]; [5]", "result": 70, "unit": "%"},
      {"measurement": "% lowering dulcitol accumulation in vivo, N (sciatic nerve)", "setting": "[1]; sciatic nerve, 115 mg/kg/day, diet, four days", "result": 100, "unit": "%"},
      {"measurement": "inhibition at 0.1 µM", "setting": "[3]", "result": 80, "unit": "%"}
    ]},
    {"smiles": "COc1ccc2c(C(=S=O)N(C)CC(N)=O)cccc2c1C(F)(F)F", "note": "[[[[6-Methoxy-5-(trifluoromethyl)-1-naphthalenyl]thioxomethyl]methylamino]-acetamide S-oxide]", "values": [
      {"measurement": "% lowering dulcitol accumulation in vivo, L (lens)", "setting": "[1]; 58 mg/kg/day, 96 h", "result": 0, "unit": "%"},
      {"measurement": "% lowering dulcitol accumulation in vivo, N (sciatic nerve)", "setting": "[1]; 58 mg/kg/day, 96 h", "result": 77, "unit": "%"},
      {"measurement": "comparison with tolrestat at 10 mg/kg/day (in words)", "setting": "[1]; at a dose of 58 mg/kg/day", "result": "comparable results"},
      {"measurement": "% lowering dulcitol accumulation in vivo, L (lens)", "setting": "[1]; lens, 12 mg/kg/day, mode of administration not given, four days", "result": 0, "unit": "%"},
      {"measurement": "effect on accumulation of galactitol in the lenses and sciatic nerves (in words)", "setting": "[1]", "result": "diminish the accumulation of galactitol in the lenses and sciatic nerves of rats fed galactose"},
      {"measurement": "% lowering dulcitol accumulation in vivo, N (sciatic nerve)", "setting": "[1]; sciatic nerve, 12 mg/kg/day, mode of administration not given, four days", "result": 45, "unit": "%"},
      {"measurement": "inhibition at 0.1 µM", "setting": "[3]", "result": 3, "unit": "%"}
    ]},
    {"smiles": "COc1ccc2c(C(=S)N(C)CC(=O)O)cccc2c1C(F)(F)F", "note": "[tolrestat, N-[[6-methoxy-5-(trifluoromethyl)-1-naphthalenyl]thioxomethyl]-N-methylglycine, reference compound]", "values": [
      {"measurement": "% lowering dulcitol accumulation in vivo, L (lens)", "setting": "[1]; lens, 10 mg/kg/day, gavage (same experiment), four days", "result": 0, "unit": "%"},
      {"measurement": "% lowering dulcitol accumulation in vivo, N (sciatic nerve)", "setting": "[1]; sciatic nerve, 10 mg/kg/day, gavage (same experiment), four days", "result": 81, "unit": "%"}
    ]}
  ]
}
